Laboratory results from publication PMC3401038 (ACS Chemical Biology, 2012).

Experiments:
[1] = tested on: M. bovis BCGMtbNar; format: cell-based, Mycobacterium bovis BCG
[2] = tested on: M. tuberculosis H37Rv; format: cell-based, Mycobacterium tuberculosis; conditions: hypoxic shift down M. tuberculosis H37Rv, result in words
[3] = tested on: M. tuberculosis H37Rv; format: cell-based, Mycobacterium tuberculosis; conditions: hypoxic shift down M. tuberculosis, 5 days treatment, result in words

SMILES: Cc1ncc([N+](=O)[O-])n1CCO [metronidazole]
- effect on ATP pool / intracellular ATP levels [1]: not affected

SMILES: COc1nc2ccc(Br)cc2cc1[C@@H](c1ccccc1)[C@@](O)(CCN(C)C)c1cccc2ccccc12 [TMC207]
- effect on ATP levels [2]: reduction in ATP levels
- bacterial viability (CFU) [3]: reduction in bacterial viability
- effect on ATP pool / intracellular ATP levels [1]: significantly reduce the ATP pool

SMILES: O=[N+]([O-])c1cn2c(n1)OC[C@@H](OCc1ccc(OC(F)(F)F)cc1)C2 [PA-824]
- effect on ATP levels [2]: reduction in ATP levels
- bacterial viability (CFU) [3]: reduction in bacterial viability
